The values that follow come from patent publication US8399518B2, “Administration of 3,5-diiodothyropropionic acid for stimulating weight loss, and/or lowering triglyceride levels, and/or treatment of metabolic syndrome” (University of Arizona Office of Technology Transfer, priority 2007, dated 2013).

The experiment is described as follows: Human clinical study with DITPA: weight loss in patients with a history of congestive heart failure. It counts as in vivo. Particulars: maximum 26 weeks; for patients who experienced a weight loss of 2% or more: DITPA or placebo (2:1) orally, 90 mg/day increased to 180 or 360 mg/day. As to the method: Fifty-four patients with a history of congestive heart failure were administered DITPA or placebo in a 2:1 randomized and double-blinded manner for a maximum of 26 weeks. […] The patients in the study were administered DITPA orally twice per and the dose began at 90 mg/day and increased to 180 mg/day after two weeks. In half of the DITPA patients, the dose was increased further to 270 mg/day after two weeks, and then to 360 mg/day. Patients were randomized 1:1:1 to DITPA 180 mg/day, DITPA 360 mg/day, or placebo.

Each structure is given as a SMILES string.

With `O=C(O)CCc1cc(I)c(Oc2ccc(O)cc2)c(I)c1` [DITPA, 3,5-diiodothyropropionic acid], the “decrease in weight, overweight patients versus patients of normal body weight” value (oral DITPA 180 or 360 mg/day) is given as “greater decrease in weight in overweight patients than those of normal body weight”. The “patients who experienced a weight loss of 2% or more” value is, setting by setting: (patients with body mass index greater than 25) 71.05%; (patients with body mass index less than or equal to 25) 37.5%.
